Source: PubChem BioAssay AID720512 (Broad Institute, 2013)
Active and inactive are the calls of the source. How the calls were made is not given here.

molecular target: Toxin B (TcdB) glycohydrolase, Clostridioides difficile 630; test: TcdB glycohydrolase inhibitors, dose response, biochemical, cherry-pick, plate reader (AID 720512); conditions: recombinant TcdB glycohydrolase activity

| SMILES | AC50 |
| --- | --- |
| CCc1cc(-c2n[nH]c(C)c2-c2nc(C)cs2)c(O)cc1OC | > 39 µM (inactive) |
| COc1ccc(/C=C(/C#N)C(=O)Nc2ccc(O)cc2)cc1C(=O)O | > 39 µM (inactive) |
| O=C(c1ccccc1)c1coc2ccc(O)c(Cl)c12 | > 39 µM (inactive) |
| FC(F)(F)c1cc(CCN2CCNC[C@H]2Cc2cccc3ccccc23)cc(C(F)(F)F)c1 | > 39 µM (inactive) |
| CCn1c(C)nc2cc(C(=O)N/N=C/c3ccc(OC)c(O)c3)ccc21 | > 39 µM (inactive) |
| ONC(=Nc1ccccc1Cl)c1ccccc1Cl | > 39 µM (inactive) |
| ON=C1c2ccccc2-c2ccc(O)cc21 | 22 µM |
| COc1cc(/C=N/NC(=O)c2cccc([N+](=O)[O-])c2)ccc1O | > 39 µM (inactive) |
| COc1ccc(C(=O)/C=C/c2ccc(O)cc2)c2c1CC(O)C(C)(C)O2 (configuration not stated) | > 39 µM (inactive) |

same assay, conditions: recombinant TcdB glycohydrolase activity, at 10 µM (top of the series)

| SMILES | activity change, negative = inhibition |
| --- | --- |
| O=C(COc1cccc(C(F)(F)F)c1)N1CCN(c2ccc(O)cc2)CC1 | inactive |

same assay, conditions: recombinant TcdB glycohydrolase activity, at 19.5 µM (top of the series)

| SMILES | activity change, negative = inhibition |
| --- | --- |
| O=C(COc1ccccc1)Nc1ccc(S(=O)(=O)Nc2ncccn2)cc1 | inactive |
| CCOC(=O)/C=c1/s/c(=C/c2ccc3cc(OC)ccc3c2)c(=O)n1CC(=O)NCC1CCCO1 (configuration not stated) | inactive |
| O=c1c2ccc(Cl)cc2[nH]c(=S)n1-c1cccnc1 | inactive |
| CC12CCC(=O)N1C(C(=O)OCc1c(Cl)cccc1Cl)CS2 (configuration not stated) | inactive |
| O=C(Nc1ccccc1F)N1C[C@@H]2N[C@H](C1)C2c1ccc(-c2cccc(F)c2)cc1 (some centres not stated) | inactive |
| O=S(=O)(c1ccccc1)N1CCN(Cc2nnc(-c3ccccc3)o2)CC1 | inactive |
| Cc1cnc([N+](=O)[O-])n1CCOC(=O)NC(=O)c1ccc(F)cc1 | inactive |
| O=c1[nH][nH]c(=O)c2c1[nH]c(=S)n2Cc1ccccc1 | inactive |
| C[C@H](CO)N1C[C@H](C)[C@H](CN(C)Cc2ccc(Oc3ccccc3)cc2)Oc2cc(-c3ccncc3)ccc2S1(=O)=O | inactive |
| COc1ccc2cc3c(nc2c1)OCC3 | inactive |
| COc1cc(/C=N/NC(=O)c2nnn(-c3nonc3N)c2C(C)C)ccc1O | inactive |
| Nc1nc(CCOc2ccc(F)cc2)cs1 | inactive |
| O=C(OCC(=O)N1CCCCC1)c1ccccc1SCC(=O)N1CCCCC1 | inactive |
| CC(C)CN1CCN(CC#Cc2ccccc2)CC1CCO (configuration not stated) | inactive |
| CN1C(=O)c2cc(NC(=O)c3cccc(F)c3)ccc2OC[C@@H]2O[C@@H](CC(=O)NCC3CCCCC3)CC[C@H]21 | inactive |
| CC(C)CNC(=O)c1c(F)c(F)c(F)c(F)c1F | inactive |
| O=C(NCc1nnc2c(C(F)(F)F)cc(Cl)cn12)c1cccnc1 | inactive |
| O=S(=O)(Nc1ccc(O)cc1)c1cccc2cccnc12 | inactive |
| CCCNC(=O)C1CC(=O)N(c2ccc(OCC)cc2)C1 (configuration not stated) | inactive |
| NNC(=O)CCc1nc2ccc(O)cc2[nH]1 | inactive |
| Cc1ccc(/C=C/c2onc(C)c2S(=O)(=O)N2CCC(C(=O)N3CCCCC3)CC2)cc1 | inactive |
| Cc1ccc(C2=NS(=O)(=O)N(C)C(C(=O)NCc3ccccc3)=C2)cc1 | inactive |
| O=C(O)c1ccc(/C=N/NC(=S)NCCN2CCOCC2)cc1 | inactive |
| CCc1ccc(NC(=O)C2=CC(c3ccc(OC)cc3)=NS(=O)(=O)N2C)cc1 | inactive |

| SMILES | activity change, negative = inhibition |
| --- | --- |
| O=c1[nH]c2cc(O)ccc2c2ccccc12 | inactive |
| O=C(NNc1ccc(-c2csnn2)cc1)c1cc(Cl)cc(Cl)c1 | inactive |
| CNC(=O)C1CCN(S(=O)(=O)c2c(C)noc2/C=C/c2cccc(OC)c2)CC1 | inactive |
| COc1ccccc1C1NC(=O)NC(C)=C1C(=O)OC1CCCCC1 (configuration not stated) | inactive |
| CC(Sc1nc2ccccc2n1C)C(=O)Nc1ccc(N2CCOCC2)cc1 (configuration not stated) | inactive |
| CCN1CC(CNCc2cn(-c3ccc(OC)cc3)nc2-c2ccccc2Cl)CC1=O (configuration not stated) | inactive |
| Cc1ccc(C)c2nc(Cl)c(C3NC(=O)c4ccccc4N3)cc12 (configuration not stated) | inactive |
| Cc1ccc(Oc2c(CO)c(-c3ccccc3)nn2C)cc1 | inactive |
| CCOC(=O)c1cccc(NC(=O)CCNS(=O)(=O)c2cccc3nonc23)c1 | inactive |
| Oc1ccc(/C=N/n2cc(-c3ccccc3)[nH]c2=S)cc1 | inactive |
| Fc1cccc(NC(=S)NNc2c3ccccc3nc3ccccc23)c1 | inactive |
| COc1cc(/C=C2\SC(=S)N(NC(=O)c3cccc(O)c3)C2=O)ccc1O | inactive |
| CCOc1ccccc1NC(=O)CCNS(=O)(=O)c1cccc2nonc12 | inactive |
| COc1ccc(Cl)cc1NC(=S)NC1CCCC1 | inactive |
| O=C(C[C@H]1C[C@@H]2c3cc(NC(=O)c4ccc5c(c4)OCO5)ccc3O[C@@H]2[C@@H](CO)O1)NCc1cccc(F)c1 | inactive |
| Oc1ccccc1-c1cnc2cccnn12 | inactive |
| CC(C)C12NC(=O)NC(=O)N1CCS2 (configuration not stated) | inactive |
| COc1ccc(-c2csc(NC(=O)c3ccccc3F)c2C(=O)O)cc1 | inactive |
| Cc1ccccc1NS(=O)(=O)c1ccc(OCC(=O)N2CCCCC2)cc1 | inactive |
| COc1ccc(C2=NS(=O)(=O)N(C)C(C(=O)N3CCOCC3)=C2)cc1 | inactive |
| O=C(c1ccc([N+](=O)[O-])cc1)N1CCN(c2cccc3[nH]ccc23)CC1 | inactive |
| O=CN(c1ccccc1)c1ccc2ccccc2c1 | inactive |
| COc1cc(/C=C/c2sc3ccccc3[n+]2CCCS(=O)(=O)[O-])ccc1O | inactive |
| Cc1ccc(S(=O)(=O)Nc2cccnc2Oc2ccc(Cl)cc2)cc1 | inactive |

| SMILES | activity change, negative = inhibition |
| --- | --- |
| CN1C(=O)c2cc(NC(=O)c3cccc(F)c3)ccc2OC[C@H]2O[C@H](CC(=O)NCC3CCCCC3)CC[C@@H]21 | inactive |
| CCS(=O)(=O)c1ccc2oc(Nc3ccc(C(C)(C)C)cc3)nc2c1 | inactive |
| Nc1cc(=O)[nH]c(SCC(=O)Nc2ccccc2Sc2ccc(Cl)cc2)n1 | inactive |
| S=c1[nH]nc2ccccn12 | inactive |
| CN1C(=O)CSc2ccc(NC(=O)N3CCc4ccccc43)cc21 | inactive |
| COc1cc(-c2n[nH]c(=S)n2/N=C/c2cccn2C)cc(OC)c1OC | inactive |
| O=C(CSc1nc2ccccc2[nH]1)NC1CCCc2ccccc21 (configuration not stated) | inactive |
| Cc1cc(C)nc(/N=C(\N)Nc2ccccc2-c2ccccc2)n1 | inactive |
| COc1ccc(C2=NS(=O)(=O)N(C)C(C(=O)N(C)Cc3ccccc3)=C2)cc1 | inactive |
| CNc1nc(C23CC4CC(CC(C4)C2)C3)cs1 | inactive |
| O=C(NC(=S)Nc1ccc(O)cc1)c1cncc(Br)c1 | inactive |
| C/C(=N\Nc1ccc([N+](=O)[O-])cc1)c1cccc(N)c1 | inactive |
| COc1ccc(NS(=O)CCCc2ccccc2)cc1 (configuration not stated) | inactive |
| COc1ccc(C2=NS(=O)(=O)N(C)C(C(=O)NC(C)c3ccccc3)=C2)cc1OC (configuration not stated) | inactive |
| CCOC(CCNC(=O)c1cn(CCOC)c(=O)c2c1c1ccccc1n2C)OCC | inactive |
| O=C(OCC(=O)N1CCCc2ccccc21)c1ccc(C(F)(F)F)cc1 | inactive |
| O=C1CCCC2=C1Sc1ccccc1N2 | inactive |
| CN(C)CCCNC(=O)C[C@H]1CC[C@@H]2[C@@H](COc3ccc(NC(=O)c4ccc5c(c4)OCO5)cc3C(=O)N2C)O1 | inactive |
| COC(=O)c1ccc(OC(=O)c2ccc(OC)cc2)c(OC)c1 | inactive |
| Cc1ccc(NNC(=O)C2CCC2)cc1C | inactive |
| COC(=O)C1=C(c2ccc(F)cc2OCc2ccccc2)C[C@@H]2CC[C@H]1N2C(=O)N1CCCC1 | inactive |
| O=C(CSc1nc2cc(Cl)ccc2s1)c1ccco1 | inactive |
| COc1cc(/C=C/C(=O)OCC(=O)N(C)Cc2ccccc2)ccc1O | inactive |

same assay, conditions: recombinant TcdB glycohydrolase activity, at 21 µM (top of the series)

| SMILES | activity change, negative = inhibition |
| --- | --- |
| CN(C)CC(=O)N1CC[C@@H]2[C@H]1c1cc(-c3ccccc3)ccc1N(C)[C@H]2CO | inactive |
